Like-named read-outs stand apart in the source and are kept apart here.
What was measured:
[1] = tested on: H69/LX4 human small cell lung carcinoma cell line which overexpresses P-glycoprotein (Pgp); experiment: Cytotoxicity in drug resistant H69/LX4 cells (AlamarBlue); settings: for Rf (resistance factor): IC50 in H69/LX4 divided by IC50 in H69/P
Protocol: (§1) The cytotoxicity of compounds of formula (I) was measured using the H69 parental (H69/P) human small cell lung carcinoma cell line and the drug resistant human small cell lung carcinoma cell line H69/LX4 which overexpresses P-glycoprotein (Pgp).
(§2) H69/P and H69/LX4 cells were pipetted into 96-well tissue culture plates and then allowed to incubate at 37° C. for 4 h. A range of concentrations from 0.01 nM to 5 μM of compounds of formula (I) or the standards TAS-103, Doxorubicin and Topotecan were then added. The plates were incubated for 5-6 days before adding AlamarBlue to each well and returning the plates to the incubator for 5-8 h to allow colour development. The cell numbers in the plates at the end of this period were directly proportional to the absorbance measured at a wavelength of 570 nm (reference wavelength 600 nm).

[2] = tested on: COR-L23/R human non-small cell lung carcinoma cell line which overexpresses multidrug resistance associated protein (MRP); experiment: Cytotoxicity in drug resistant COR-L23/R cells (SRB assay); type: cell-based; settings: for Rf (resistance factor): IC50 in L23/R divided by IC50 in L23/P; for IC50: L23/R cells (MRP overexpressing), 5-6 days incubation, SRB
Protocol: (§3) The cytotoxicity of the compounds described herein was also measured using the COR-L23 parental (COR-L23/P) human non-small cell lung carcinoma cell line and also the drug resistant human non-small cell lung carcinoma cell line COR-L23/R which overexpresses multidrug resistance associated protein (MRP).
(§4) L23/P and L23/R cells were pipetted into 96-well tissue culture plates and then allowed to incubate at 37° C. for 4 h. A range of concentrations from 0.01 nM to 5 μM of compounds of formula (I) or the standards TAS-103, Doxorubicin and Topotecan were then added. The plates were incubated for 5-6 days before proliferation was assessed using the sulphurhodamine B (SRB) assay as described by Skehan et al, J Natl Cancer Inst 1990, 82, pp1107-1112.

[3] = tested on: Jurkat human leukaemia cell line (JLC); experiment: Cytotoxicity in Jurkat cells (JLC); type: cell-based
Protocol: (§5) The cytotoxicity of the compounds described herein was also measured using the Jurkat human leukaemia cell line (JLC) and also the amsacrine-resistant Jurkat human leukaemia cell line (JLA) and the doxorubicin-resistant Jurkat human leukaemia cell line (JLD). The cytotoxicity, as measured by the IC50 (concentration required to give 50% cell kill) in the JLA or JLD cell line divided by the cytotoxicity in the JLC cell line gives an indication of the degree to which a compound may be affected by atypical drug resistance and is termed the resistance factor (Rf) of the compound. The method used has been described previously (Finlay et al, Eur J. Cancer 32A, 708-714, 1996). Compounds were active in the range 1 nM to 5 μM.

[4] = tested on: COR-L23 parental (COR-L23/P) human non-small cell lung carcinoma cell line; experiment: Cytotoxicity in COR-L23 parental cells (SRB assay); type: cell-based
Protocol: The cytotoxicity of the compounds described herein was also measured using the COR-L23 parental (COR-L23/P) human non-small cell lung carcinoma cell line and also the drug resistant human non-small cell lung carcinoma cell line COR-L23/R which overexpresses multidrug resistance associated protein (MRP). The cytotoxicity, as measured by the IC50 (concentration required to give 50% cell kill) in the L23/R cell line divided by the cytotoxicity in the L23/P cell line gives an indication of the degree to which a compound may be affected by MRP-dependant MDR and is termed the resistance factor (Rf) of the compound.
as §4

[5] = tested on: H69 parental (H69/P) human small cell lung carcinoma cell line; experiment: Cytotoxicity in H69 parental cells (AlamarBlue); type: cell-based; settings: 5-6 days incubation, concentration required to give 50% cell kill
Protocol: as §1, §2

[6] = tested on: doxorubicin-resistant Jurkat human leukaemia cell line (JLD); experiment: Cytotoxicity in doxorubicin-resistant Jurkat cells (JLD); type: cell-based; settings: for Rf(JLD/JLC): IC50 in JLD divided by IC50 in JLC; for IC50: JLD cells (doxorubicin-resistant)
Protocol: as §5

[7] = tested on: amsacrine-resistant Jurkat human leukaemia cell line (JLA); experiment: Cytotoxicity in amsacrine-resistant Jurkat cells (JLA); type: cell-based; settings: for Rf(JLA/JLC): IC50 in JLA divided by IC50 in JLC; for IC50: JLA cells (amsacrine-resistant)
Protocol: as §5

topoisomerase II = experiment: Stabilization of cleavable complexes with topoisomerase II; type: biochemical; settings: range where an increase in cleavable complexes was observed relative to controls
Description: (§6) Compounds were also studied for their ability to stabilize cleavable complexes in the presence of either topoisomerase I or II essentially as described previously (Finlay et al, Eur. J. Cancer 32A, 708-714, 1996). Presence of cleavable complexes was indicated by an increase in the number and intensity of bands observed after electrophoresis and autoradiography. The results are expressed as the effective concentration range where an increase in cleavable complexes was observed relative to controls in the absence of drug.

topoisomerase I = biological target: T1, topoisomerase I (Homo sapiens, UniProt P11387); experiment: Stabilization of cleavable complexes with topoisomerase I; type: biochemical; settings: range where an increase in cleavable complexes was observed relative to controls
T1 sequence (P11387 1-765): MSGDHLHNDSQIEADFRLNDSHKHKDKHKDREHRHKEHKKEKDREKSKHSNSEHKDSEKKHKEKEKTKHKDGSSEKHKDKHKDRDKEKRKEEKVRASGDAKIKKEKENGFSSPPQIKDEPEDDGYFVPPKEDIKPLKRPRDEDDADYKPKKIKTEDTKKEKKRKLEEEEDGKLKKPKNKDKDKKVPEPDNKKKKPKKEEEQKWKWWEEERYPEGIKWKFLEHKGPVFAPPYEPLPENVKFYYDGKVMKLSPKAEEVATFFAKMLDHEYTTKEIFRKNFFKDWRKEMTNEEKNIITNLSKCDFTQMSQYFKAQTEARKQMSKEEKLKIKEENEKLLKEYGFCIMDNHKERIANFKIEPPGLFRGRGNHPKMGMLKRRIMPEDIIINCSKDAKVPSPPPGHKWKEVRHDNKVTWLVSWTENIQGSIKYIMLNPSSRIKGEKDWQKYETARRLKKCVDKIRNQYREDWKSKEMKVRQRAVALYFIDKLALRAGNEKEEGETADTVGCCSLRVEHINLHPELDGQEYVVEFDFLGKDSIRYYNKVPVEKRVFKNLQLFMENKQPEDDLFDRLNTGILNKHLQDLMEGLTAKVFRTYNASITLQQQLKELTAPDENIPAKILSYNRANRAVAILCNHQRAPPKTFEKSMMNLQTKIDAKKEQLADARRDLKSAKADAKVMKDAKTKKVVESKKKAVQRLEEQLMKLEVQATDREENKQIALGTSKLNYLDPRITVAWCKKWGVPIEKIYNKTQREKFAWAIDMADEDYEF
Description: as §6

[8] = Cytotoxicity in drug resistant COR-L23/R cells (SRB assay); type: cell-based, human; settings: Homo sapiens, COR-L23/R; L23/R cells (MRP overexpressing), 5-6 days incubation, SRB
Protocol: as §3, §4

[9] = Homo sapiens, read-out: H69/LX4 IC50
[10] = Homo sapiens, COR-L23, 5-6 days incubation

| SMILES | IC50 [1] [µM] | Rf (resistance factor) [1] | Rf (resistance factor) [2] | IC50 [2] [µM] | IC50 [3] [µM] | IC50 ([4]; 5-6 days incubation) [µM] | IC50 [5] [µM] | Rf(JLD/JLC) [6] | IC50 [6] [µM] | Rf(JLA/JLC) [7] | IC50 [7] [µM] | Effective concentration range, Topoisomerase II (topoisomerase II) [µM] | Effective concentration range, Topoisomerase I (topoisomerase I) [µM] | IC50 [1, 9] [µM] | IC50 [8] [µM] | IC50 ([3]; Homo sapiens, Jurkat) [µM] | IC50 [4, 10] [µM] | IC50 ([6]; Homo sapiens, Jurkat) [µM] | IC50 ([7]; Homo sapiens, Jurkat) [µM] | IC50 ([1]; read-out: H69/LX4 IC50, H69/LX4 cells (Pgp overexpressing), 5-6 days incubation) [µM] |
| --- | --- | --- | --- | --- | --- | --- | --- | --- | --- | --- | --- | --- | --- | --- | --- | --- | --- | --- | --- | --- |
| CN(C)CCNC(=O)c1cccc2nc3ccc4cnccc4c3nc12 [Compound 2, Pyrido[4,3-α]phenazine-11-carboxylic acid (2-dimethylamino-ethyl)-amide] | 0.056 | 0.6 | 2.5 | 0.056 | 0.028 | 0.022 | 0.088 | 2.8 | 0.078 | 3 | 0.084 |  |  |  |  |  |  |  |  |  |
| CN(C)CCNC(=O)c1cccc2nc3ccc4ncccc4c3nc12 [Compound 3, Pyrido[3,2-α]phenazine-11-carboxylic acid (2-dimethylamino-ethyl)-amide] | 0.133 | 1.1 | 1.5 | 0.071 | 0.074 | 0.048 | 0.123 | 0.7 | 0.052 | 2.8 | 0.235 |  |  |  |  |  |  |  |  |  |
| COc1nccc2c1ccc1nc3cccc(C(=O)NCCN(C)C)c3nc12 [Compound 5, 4-Methoxypyrido[4,3-α]phenazine-11-carboxylic acid (2-dimethylamino-ethyl)-amide] | 0.026 | 1.3 | 1.1 | 0.016 | 0.017 | 0.014 | 0.021 | 0.7 | 0.012 | 0.7 | 0.012 | 0.1 to 3.0 | 0.1 to 3.0 |  |  |  |  |  |  |  |
| COc1nccc2c1ccc1nc3cccc(C(=O)N[C@H](C)CN(C)C)c3nc12 [Compound 6, 4-Methoxypyrido[4,3-α]phenazine-11-carboxylic acid (2-dimethylamino-1-(R)-methyl-ethyl)-amide] | 0.029 | 1.2 | 1.3 | 0.015 | 0.01 | 0.012 | 0.024 | 0.9 | 0.009 | 0.7 | 0.007 | 0.1 to 3.0 | 0.1 to 3.0 |  |  |  |  |  |  |  |
| COc1nccc2c1ccc1nc3cccc(C(=O)N[C@H](CO)CN(C)C)c3nc12 [Compound 9, 4-Methoxypyrido[4,3-α]phenazine-11-carboxylic acid (2-dimethylamino-1-(S)-hydroxymethyl-ethyl)-amide] | 0.028 | 1.2 | 1.5 | 0.006 |  | 0.004 | 0.024 |  |  |  |  |  |  |  |  |  |  |  |  |  |
| CN(C)CCNC(=O)c1cccc2nc3ccc4cnn(C)c4c3nc12 [Compound 13, 1-Methyl-1H-pyrazolo[3,4-α]phenazine-10-carboxylic acid (2-dimethylamino-ethyl)-amide] | 0.097 | 0.9 |  |  | 0.044 |  | 0.109 | 1.1 | 0.048 | 1 | 0.044 |  |  |  |  |  |  |  |  |  |
| COc1cccc2c1C(=O)c1c(O)c3c(c(O)c1C2=O)C[C@@](O)(C(=O)CO)C[C@@H]3O[C@H]1C[C@H](N)[C@H](O)[C@H](C)O1 [Doxorubicin, reference compound] |  | 135 | 16.1 |  |  |  |  |  |  | 3.7 |  |  |  | 3.7 | 0.327 | 0.007 | 0.0203 | 0.109 | 0.0259 |  |
| CN(C)CCNc1nc2cc(O)ccc2c2c1C(=O)c1ccccc1-2 [TAS-103, reference compound] |  | 1.1 | 1.3 | 0.022 | 0.0054 | 0.0163 | 0.021 | 71.1 | 0.384 | 55.9 | 0.302 | 0.3 to 10.0 | 0.3 to 10.0 |  |  |  |  |  |  | 0.022 |
| CC[C@@]1(O)C(=O)OCc2c1cc1n(c2=O)Cc2cc3c(CN(C)C)c(O)ccc3nc2-1 [Topotecan, reference compound] |  | 3.9 | 1.5 |  |  |  |  |  |  |  |  |  |  | 0.0615 | 0.0208 |  | 0.0136 |  |  |  |
